From US7214673B2, “Piperazine substituted aryl benzodiazepines and their use as dopamine receptor antagonists for the treatment of psychotic disorders” (Eli Lilly and Company, priority 2002, dated 2007)
Structures can show the parent of a compound that is named as a salt.

Assays:
Dopamine D2 receptor = target: T1, Dopamine D2 receptor (Homo sapiens, UniProt P14416); experiment: Dopamine D2 receptor binding assay ([125I]iodospiperone); conditions: [125I]iodospiperone 0.1 nM, D2 receptor membranes, 2 hours at room temperature; read-out: Relative D2 Receptor Binding Affinity Ki
T1 construct: purchased Receptor Biology (now owned by NEN) RBHD2CM
T1 sequence (P14416 1-414 isoform P14416-2): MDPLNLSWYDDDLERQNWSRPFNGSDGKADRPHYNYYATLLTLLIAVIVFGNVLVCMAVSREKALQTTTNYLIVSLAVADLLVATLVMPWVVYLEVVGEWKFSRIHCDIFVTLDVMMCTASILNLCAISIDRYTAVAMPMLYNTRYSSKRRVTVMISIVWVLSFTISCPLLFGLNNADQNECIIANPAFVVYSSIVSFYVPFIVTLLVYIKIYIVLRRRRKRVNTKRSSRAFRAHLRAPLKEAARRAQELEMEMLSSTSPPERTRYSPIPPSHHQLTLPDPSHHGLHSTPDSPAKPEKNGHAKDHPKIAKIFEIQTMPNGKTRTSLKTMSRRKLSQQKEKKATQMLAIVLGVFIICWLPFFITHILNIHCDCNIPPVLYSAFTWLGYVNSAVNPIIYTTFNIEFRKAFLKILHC
Method: Serotonin 5-HT6 and Dopamine D2 Binding Assay Protocol
The assay buffers used are 50 mM Tris-HCl pH 7.4, 120 mM NaCl, 5 mM KCl, 5 mM MgCl2, 1 mM EDTA for the Dopamine D2s receptor binding assay. […] The membranes used are from Receptor Biology (now owned by NEN), Cat #RBHD2CM for the D2 receptor.
Compounds are obtained as 10 mM stocks in 100% DMSO. They are diluted to 1 mM in 100% DMSO by adding 180 μL DMSO to 20 μL of stock in 96 well plates using a multidrop. […] This is done using a TECAN robot.
The radioligand is diluted in assay buffer to provide 0.1 nM for the D2 assay. Each vial of membranes is diluted up to 92 mL in assay buffer. The final assay volume is 250 μL consisting of 210 μl of diluted membranes, 20 μL of compound or 10% DMSO for total binding, and 20 μL of diluted radioligand. The compounds are transferred from drug dilution plates into coming 96 well assay plates using a 96 well Multimek pipettor. Radioligand and membranes are added to assay plates using multidrop pipettors. Non-specific binding is determined in wells containing a final concentration of 5 μM haloperidol. The final drug concentration range in half logs is from 10 μM down to 0.1 nM.
After addition of drug, membrane, and ligand, the plates are incubated for 2 hours at room temperature. During this time 96 well Millipore filter plates (MAFBNOB50) are soaked for a least 30 minutes with 200 μL per well of 0.5% polyethyleneimine.
The 0.5% PEI is removed from filterplate wells using a TiterTek MAP aspirator and 200 μL of the incubation mixture is transferred from the incubation plate to the filterplate after mixing. This transfer is done using the 96 tip Mutimek pipettor. After transfer to the filterplate filterplates are extracted and ished twice with 220 μL per well of cold buffer on the MAP aspirator. The peel away bottoms are removed from the filterplates and 60 μL per well of microscint 20 scintillation fluid is added per well using a multidrop. Plates are placed into suitable holders and are left at room temperature for 3 hours and are counted for ^3H in either a Wallac Microbeta counter or on a Packard Topcount.

Cc1cc2c(s1)Nc1ccccc1N=C2N1CCN[C@@H](Cc2ccccc2)C1 [Example 61]
Ki (Dopamine D2 receptor): < 10 nM
melting point: 169 to 170 °C

Cc1cc2c(s1)Nc1ccccc1N=C2N1CCN[C@@H](Cc2cccs2)C1 [Example 80]
Ki (Dopamine D2 receptor): < 10 nM
melting point: 95 to 104 °C

COc1ccc(C[C@H]2CN(C3=Nc4ccccc4Nc4sc(C)cc43)CCN2)cc1 [Example 77]
Ki (Dopamine D2 receptor): 10 to 100 nM
melting point: 85 to 98 °C

COc1ccccc1C[C@H]1CN(C2=Nc3ccccc3Nc3sc(C)cc32)CCN1 [Example 75]
Ki (Dopamine D2 receptor): < 10 nM
melting point: 95 to 109 °C

Cc1cccc(C[C@H]2CN(C3=Nc4ccccc4Nc4sc(C)cc43)CCN2C)c1 [Example 103]
Ki (Dopamine D2 receptor): 10 to 100 nM
melting point: 67 to 83 °C

Cc1cc2c(s1)Nc1ccccc1N=C2N1CCN(C)[C@@H](Cc2ccsc2)C1 [Example 219]
Ki (Dopamine D2 receptor): 10 to 100 nM
melting point: 58 to 72 °C

Cc1cc2c(s1)Nc1ccccc1N=C2N1CCN[C@@H](Cc2ccsc2)C1 [Example 212]
Ki (Dopamine D2 receptor): < 10 nM
melting point: 82 to 94 °C

Cc1ccc(C[C@H]2CN(C3=Nc4ccccc4Nc4sc(C)cc43)CCN2)cc1 [Example 69]
Ki (Dopamine D2 receptor): 10 to 100 nM
melting point: 92 to 101 °C

Cc1cc2c(s1)Nc1ccccc1N=C2N1CCN(C)[C@@H](CCc2ccccc2)C1 [Example 90, 2-Methyl-10-(4-methyl-3-(S)-phenethyl-piperazin-1-yl)-4H-3-thia-4,9-diaza-benzo[f]azulene]
Ki (Dopamine D2 receptor): 10 to 100 nM
melting point: 87 to 91 °C

Cc1cc2c(s1)Nc1ccccc1N=C2N1CCN[C@@H](CCc2ccccc2F)C1 [Example 178, 10-((S)-3-(2-(2-Fluoro-phenyl)-ethyl)-piperazin-1-yl)-2-methyl-4H-3-thia-4,9-diaza-benzo[f]azulene dihydrochloride]
Ki (Dopamine D2 receptor): 10 to 100 nM

Cc1cc2c(s1)Nc1ccccc1N=C2N1CCN[C@@H](CCc2ccccc2)C1 [Example 59, 2-Methyl-10-(S)-(3-phenethyl-piperazin-1-yl)-4H-3-thia-4,9-diazabenzo[f]azulene]
Ki (Dopamine D2 receptor): 10 to 100 nM
melting point: 75 to 84 °C

COc1ccccc1CC[C@H]1CN(C2=Nc3ccccc3Nc3sc(C)cc32)CCN1C [Example 187, 10-((S)-3-(2-(2-Methoxy-phenyl)-ethyl)-4-methyl-piperazin-1-yl)-2-methyl-4H-3-thia-4,9-diaza-benzo[f]azulene dihydrochloride]
Ki (Dopamine D2 receptor): 10 to 100 nM

Cc1cc2c(s1)Nc1ccccc1N=C2N1CCN(C)[C@@H](Cc2ccccc2)C1 [Example 92]
Ki (Dopamine D2 receptor): 10 to 100 nM
melting point: 94 to 97 °C

Cc1cc2c(s1)Nc1ccccc1N=C2N1CCN[C@@H](CCCCc2ccccc2)C1 [Example 194]
Ki (Dopamine D2 receptor): < 10 nM

Cc1cc2c(s1)Nc1ccccc1N=C2N1CCN[C@@H](Cc2cccc(F)c2)C1 [Example 72]
Ki (Dopamine D2 receptor): 10 to 100 nM
melting point: 87 to 99 °C

Cc1nc2c(s1)Nc1ccccc1N=C2N1CCN[C@@H](CCc2ccccc2)C1 [Example 460, (S)-2-Methyl-10-(3-phenethyl-piperazin-1-yl)-4H-3-thia-1,4,9-triaza-benzo[f]azulene dihydrochloride hemihydrate]
Ki (Dopamine D2 receptor): < 10 nM

COc1cccc(C[C@H]2CN(C3=Nc4ccccc4Nc4sc(C)cc43)CCN2)c1 [Example 76]
Ki (Dopamine D2 receptor): < 10 nM
melting point: 96 to 109 °C

Cc1cc2c(s1)Nc1ccccc1N=C2N1CCN[C@@H](Cc2cccc(Cl)c2)C1 [Example 87]
Ki (Dopamine D2 receptor): 10 to 100 nM

Cc1cc2c(s1)Nc1ccccc1N=C2N1CCN[C@@H](Cc2ccccc2F)C1 [Example 71]
Ki (Dopamine D2 receptor): < 10 nM
melting point: 84 to 102 °C

CC(C)n1nc2c(n1)C(N1CCN[C@@H](CCc3ccccc3)C1)=Nc1ccccc1N2 [Example 594, (S)-2-Isopropyl-10-(3-phenethyl-piperazin-1-yl)-2,4-dihydro-1,2,3,4.9-pentaaza-benzo[f]azulene dihydrochloride hemihydrate]
Ki (Dopamine D2 receptor): < 10 nM

Cc1cc2c(s1)Nc1ccccc1N=C2N1CCN(C)[C@@H](CCc2cccc(F)c2)C1 [Example 183, 10-((S)-3-(2-(3-Fluoro-phenyl)-ethyl)-4-methyl-piperazin-1-yl)-2-methyl-4H-3-thia-4,9-diaza-benzo[f]azulene dihydrochloride]
Ki (Dopamine D2 receptor): 10 to 100 nM

COc1ccccc1C[C@H]1CN(C2=Nc3ccccc3Nc3sc(C)cc32)CCN1C [Example 109]
Ki (Dopamine D2 receptor): < 10 nM
melting point: 81 to 93 °C

Cc1cc2c(s1)Nc1ccccc1N=C2N1CCN[C@@H](Cc2ccc(Cl)cc2)C1 [Example 85]
Ki (Dopamine D2 receptor): < 10 nM
melting point: 91 to 108 °C

Cc1cc2c(s1)Nc1ccccc1N=C2N1CCN[C@@H](CCc2ccc(F)cc2)C1 [Example 176, 10-((S)-3-(2-(4-Fluorophenyl)-ethyl)-piperazin-1-yl)-2-methyl-4H-3-thia-4,9-diaza-benzo[f]azulene dihydrochloride]
Ki (Dopamine D2 receptor): 10 to 100 nM

COc1ccccc1CC[C@H]1CN(C2=Nc3ccccc3Nc3sc(C)cc32)CCN1 [Example 181, 10-((S)-3-(2-(2-Methoxy-phenyl)-ethyl)-piperazin-1-yl)-2-methyl-4H-3-thia-4,9-diaza-benzo[f]azulene dihydrochloride]
Ki (Dopamine D2 receptor): 10 to 100 nM

Cc1cccc(C[C@H]2CN(C3=Nc4ccccc4Nc4sc(C)cc43)CCN2)c1 [Example 70]
Ki (Dopamine D2 receptor): < 10 nM
melting point: 80 to 97 °C
